Measured values as given in patent publication US20100061928A1, “LABELLED ANALOGUES OF HALOBENZAMIDES AS RADIOPHARMACEUTICALS” (Institut National De La Sante et De La Recherche Medicale …, priority 2006, published 2010).
Counter-ions that a name gives are not always drawn.

Experiments:
[1] = Elimination of the molecules: cumulative urinary and faecal excretion 0-72 hours; format: in vivo, mouse
[2] = test system: grafted B16 F0 murine melanoma tumour; assay: Biodistribution of the ^125I-labelled molecules in the melanoma-bearing mouse (autoradiography of whole-body sections); conditions: ^125I-labelled compound
Method: The distribution of the radioactivity of the various compounds in the body (tumour and other organs) is quantified using an Ambis 4000 image analyzer on sections of whole animals. […] All the in vivo experimentation is carried out within the context defined by French legislation relating to animal experimentation.
The B16 F0 melanoma cells are provided by the ATCC and cultured in monolayers in culture medium (MEM, Invitrogen) supplemented with 10% foetal calf serum and antibiotics. The cultures are maintained by subculturing after trypsinization. The cells of the first passages are frozen and stored in liquid nitrogen. For the transplanting, the cells in culture at confluence are detached by trypsinization and washed with phosphate buffer (PBS).
The distribution of the radioactivity present in the sections is analyzed using an AMBIS 4000 analyzer (Scanalytics, CSPI, San Diego, Calif.), which is a proportional counter with a multiwire chamber validated and calibrated beforehand for the monitoring of iodine in the mouse. The measurements require acquisition times of 1000 minutes. […] The value of radioactivity per unit of surface area (cpm/mm^2) is converted to concentration (kBq/g) and expressed as percentage of the injected dose/g of tissue (% ID/g).

[3] = test system: tumour; assay: Dosimetry with regard to the tumour (MIRD programme, extrapolated to ^131I)

For `CCN(CC)CCNC(=O)c1cc2cc(I)ccc2[nH]1` [compound 10, N-(2-diethylaminoethyl)-5-iodoindole-2-carboxamide hydrochloride], the “Faecal elimination 0-72 hours (Faeces)” value ([1]; cumulative excretion 0-72 hours, faeces, mice in metabolic cages) was 61.7%, the “Urinary and faecal elimination 0-72 hours (Total)” value ([1]; cumulative excretion 0-72 hours, urine + faeces) was 83.2% and the “Urinary elimination 0-72 hours (Urine)” value ([1]; cumulative excretion 0-72 hours, urine, mice in metabolic cages) was 21.5%. For the same compound, the “elimination route (in words)” value ([1]; urinary versus faecal, 0-72 hours) was “faecal route predominates”, the “Concentration of radioactivity, B 16 (tumour), Mean” value (“Concentration … (tumour), Mean” below) ([2]; 1 H after i.v. administration) was 8.31 % ID/g and the “Concentration of radioactivity, Ic (intestinal contents), Mean” value (“Concentration of radioactivity, Ic” below) ([2]; 1 H after i.v. administration) was 76.74 % ID/g. For the same compound, the “Concentration of radioactivity, Sc (stomach contents), Mean” value (“Concentration of radioactivity, Sc” for short) ([2]; 1 H after i.v. administration) was 35.41 % ID/g, the “Concentration of radioactivity, blood (measured in the heart cavity), Mean” value (“Concentration of radioactivity, blood” for short) ([2]; 1 H after i.v. administration) was 1.60 % ID/g and the “Concentration of radioactivity, brain, Mean” value (from here on “Concentration … brain, Mean”) ([2]; 1 H after i.v. administration) was 4.84 % ID/g. For the same compound, the “Concentration of radioactivity, kidney, Mean” value (shortened to “Concentration … kidney, Mean”) ([2]; 1 H after i.v. administration) was 10.87 % ID/g, the “Concentration of radioactivity, liver, Mean” value (“Concentration … liver, Mean” below) ([2]; 1 H after i.v. administration) was 11.86 % ID/g and the “Concentration of radioactivity, lungs, Mean” value (“Concentration … lungs, Mean” for short) ([2]; 1 H after i.v. administration) was 14.41 % ID/g. The “Concentration of radioactivity, muscle (skeletal muscle), Mean” value (shortened to “Concentration of radioactivity, muscle”) ([2]; 1 H after i.v. administration) was 1.50 % ID/g, the “Concentration of radioactivity, pancreas, Mean” value (shortened to “Concentration … pancreas, Mean”) ([2]; 1 H after i.v. administration) was 7.15 % ID/g and the “Concentration of radioactivity, spleen, Mean” value (shortened to “Concentration … spleen, Mean”) ([2]; 1 H after i.v. administration) was 8.09 % ID/g. For the same compound, the “Concentration of radioactivity, uvea (pigmented tissues of the eye), Mean” value (“Concentration of radioactivity, uvea” for short) ([2]; 1 H after i.v. administration) was 11.70 % ID/g, the “Concentration … (tumour), Mean” value ([2]; 3 H after i.v. administration) was 10.22 % ID/g and the “Concentration of radioactivity, Ic” value ([2]; 3 H after i.v. administration) was 112.56 % ID/g. The “Concentration of radioactivity, Sc” value ([2]; 3 H after i.v. administration) was 18.52 % ID/g, the “Concentration of radioactivity, blood” value ([2]; 3 H after i.v. administration) was 0.79 % ID/g and the “Concentration … brain, Mean” value ([2]; 3 H after i.v. administration) was 1.73 % ID/g. The “Concentration … kidney, Mean” value ([2]; 3 H after i.v. administration) was 4.19 % ID/g, the “Concentration … liver, Mean” value ([2]; 3 H after i.v. administration) was 5.21 % ID/g and the “Concentration … lungs, Mean” value ([2]; 3 H after i.v. administration) was 3.46 % ID/g. The “Concentration of radioactivity, muscle” value ([2]; 3 H after i.v. administration) was 0.49 % ID/g, the “Concentration … pancreas, Mean” value ([2]; 3 H after i.v. administration) was 2.48 % ID/g and the “Concentration … spleen, Mean” value ([2]; 3 H after i.v. administration) was 2.79 % ID/g. For the same compound, the “Concentration of radioactivity, uvea” value ([2]; 3 H after i.v. administration) was 12.78 % ID/g, the “Concentration … (tumour), Mean” value ([2]; 6 H after i.v. administration) was 9.84 % ID/g and the “Concentration of radioactivity, Ic” value ([2]; 6 H after i.v. administration) was 79.85 % ID/g. For the same compound, the “Concentration of radioactivity, Sc” value ([2]; 6 H after i.v. administration) was 21.84 % ID/g, the “Concentration of radioactivity, blood” value ([2]; 6 H after i.v. administration) was 0.67 % ID/g and the “Concentration … brain, Mean” value ([2]; 6 H after i.v. administration) was 0.74 % ID/g. For the same compound, the “Concentration … kidney, Mean” value ([2]; 6 H after i.v. administration) was 2.50 % ID/g, the “Concentration … liver, Mean” value ([2]; 6 H after i.v. administration) was 3.63 % ID/g and the “Concentration … lungs, Mean” value ([2]; 6 H after i.v. administration) was 1.70 % ID/g. The “Concentration of radioactivity, muscle” value ([2]; 6 H after i.v. administration) was 0.31 % ID/g, the “Concentration … pancreas, Mean” value ([2]; 6 H after i.v. administration) was 1.46 % ID/g and the “Concentration … spleen, Mean” value ([2]; 6 H after i.v. administration) was 1.68 % ID/g. For the same compound, the “Concentration of radioactivity, uvea” value ([2]; 6 H after i.v. administration) was 13.20 % ID/g, the “Concentration … (tumour), Mean” value ([2]; 24 H after i.v. administration) was 8.16 % ID/g and the “Concentration of radioactivity, Ic” value ([2]; 24 H after i.v. administration) was 3.31 % ID/g. The “Concentration of radioactivity, Sc” value ([2]; 24 H after i.v. administration) was 2.10 % ID/g, the “Concentration of radioactivity, blood” value ([2]; 24 H after i.v. administration) was 0.10 % ID/g and the “Concentration … brain, Mean” value ([2]; 24 H after i.v. administration) was 0.00 % ID/g. The “Concentration … kidney, Mean” value ([2]; 24 H after i.v. administration) was 0.83 % ID/g, the “Concentration … liver, Mean” value ([2]; 24 H after i.v. administration) was 1.61 % ID/g and the “Concentration … lungs, Mean” value ([2]; 24 H after i.v. administration) was 0.37 % ID/g. The “Concentration of radioactivity, muscle” value ([2]; 24 H after i.v. administration) was 0.19 % ID/g, the “Concentration … pancreas, Mean” value ([2]; 24 H after i.v. administration) was 0.09 % ID/g and the “Concentration … spleen, Mean” value ([2]; 24 H after i.v. administration) was 1.22 % ID/g. The “Concentration of radioactivity, uvea” value ([2]; 24 H after i.v. administration) was 8.81 % ID/g, the “Concentration … (tumour), Mean” value ([2]; 72 H after i.v. administration) was 0.84 % ID/g and the “Concentration of radioactivity, Sc” value ([2]; 72 H after i.v. administration) was 0.04 % ID/g. For the same compound, the “Concentration … kidney, Mean” value ([2]; 72 H after i.v. administration) was 0.71 % ID/g, the “Concentration … liver, Mean” value ([2]; 72 H after i.v. administration) was 0.61 % ID/g and the “Concentration of radioactivity, uvea” value ([2]; 72 H after i.v. administration) was 5.86 % ID/g. It also gave an Effective period ([3]; extrapolated to 131I labelling) of 18.2 h and a Biological period ([3]; from biodistribution data) of 20.1 hours.
